Reference: patent US5648359A, “Tumor necrosis factor production inhibitors” (Sumitomo Pharmaceuticals Company, Limited, priority 1993, dated 1997)

Tests used:
[1] = system: TNF production or secretion in mouse peritoneal macrophages; assay: Inhibitory effect on TNF production or secretion in mouse peritoneal macrophages (30 μM); format: cell-based, mouse (BALB/c); conditions: 30 μM compound, LPS 10 μg/ml, 18 hours, TNF by L929 bioassay; for inhibition at 30 µM: Mus musculus
Description: Inhibitory effect on TNF production or secretion in mouse peritoneal macrophages (In case drug concentration is 30 μM)
(§1) BALB/c mice (5 weeks old, female, Charles River Japan) were intraperitoneally injected with 1 ml of 3% thioglycollate broth. After 4 days, the mice were sacrificed. Peritoneal exudated cells (PECs) were collected from the peritoneal cavity by washing with minimum essential medium (hereinafter abbreviated as MEM, manufactured by Handai Biseibutubyo Kenkyukai, Osaka, Japan) containing 5 U/ml heparin and 1% fetal bovine serum (FBS, manufactured by GIBCO Laboratories Inc.). PECs were washed three times with MEM, suspended with MEM containing 10% FBS. After the viable cells were counted by exclusion of trypan blue dye, the suspension was adjusted at the final concentration of 2×10^6 cells/ml with MEM containing 10% FBS and seeded into a 96-well microplate (Costar, Cambridge, Mass., USA) at 2×10^5 cells/100 μl/well. The PECs were incubated for an hour at 37° C. in a humidified 5% CO2 incubator, and were washed twice with MEM warmed at 37° C. to remove non-adherent cells. Residual adherent cells were used as peritoneal macrophages. After the washing above, 50 μl each/well of MEM containing 10% FBS was added to each well and provided for use in the following experiment.
(§2) The powdery compound of the present invention was dissolved in dimethylsulfoxide in a concentration of 30 mM. The solution was then diluted with MEM containing 10% FBS in the final concentration of 30 μM. In the peritoneal macrophages obtained above, 50 μl each of the dilution was added to each well to make the total volume 100 μl. Thereafter 100 μl each of lipopolysaccharide (hereinafter abbreviated as LPS, E. coli 0111B4, manufactured by DIFCO, USA) was added to each well in the final concentration of 10 μg/ml. After the cells were incubated at 37° C. for 18 hours in a humidified 5% CO2 incubator, 25 μl of the supernatant in each well was collected.
(§3) The TNF activity in the supernatant collected was determined by bioassay using TNF-sensitive mouse fibroblast cell line L929 cells. That is, 100 μl each of MEM containing 10% FBS was added to each well of a 96-well microplate; using the resulting mixture, 25 μl of the collected supernatant was diluted to 5-fold dilution to final concentrations (concentrations after the following addition of L929 cell suspension) of 10%, 2%, 0.4% and 0.08%.
(§4) L929 cells were then suspended (4×10^5 cells/ml) in MEM containing 10% FBS and 1 μg/ml actinomycin D (Sigma Co.) and 100 μl each of the suspension was added to each well of the above microplate at 4×10^4 cells/well and cultured at 37° C. in a humidified 50% CO2. The viable cells were counted by partial modification of the MTT method reported in Monosann et al., T., J. Immunol. Method, 65, 55-63, 1983. The modified MTT method comprises the following steps. One mg/ml of 3-(4,5-dimethylthiazol-2-yl)-2,5-diphenyltetrazolium bromide (hereinafter abbreviated as MTT, manufactured by Sigma Co.) was dissolved in MEM, and 50 μl each of the solution was added to each well of the microplate above. After incubating the microplate for further 6 hours, the supernatant was discarded and 100 μl of 0.004N HCl-isopropyl alcohol and then 10 μl of 0.01% sodium laurylsulfate aqueous solution was added to each well. After shaking the 96-well microplate for a few minutes, the absorbance in each well was measured with a microplate reader (Corona Co.) at an absorption wavelength of 550 nm. The absorbance correlated to the count of the viable L929 cells and represented the TNF activity in the supernatant. The TNF activity was determined in terms of unit (U)/ml from the calibration curve of absorbance for the TNF activity obtained using mouse recombinant TNF α (TNF-M, manufactured by Genzyme Co.) as a standard. The activity of inhibiting TNF production of each compound, was determined by the following equation.
Inhibition of TNF production or secretion (%)=(1-TNF activity in the […]

[2] = system: TNF production in mouse peritoneal macrophages; assay: Inhibitory effect on TNF production in mouse peritoneal macrophages (50 μM and 100 μM); format: cell-based, mouse (BALB/c); conditions: Peritoneal macrophage, read-out: Inhibition of TNF Production or secretion; for inhibition at 100 µM: 100 μM compound; for inhibition at 50 µM: 50 μM compound
Description: as §1
as §2, with “The solution was then diluted with MEM containing 10% FBS in the final concentration of 30 μM.” left out
as §3
as §4, with “After incubating the microplate for further 6 hours, the supernatant was discarded and 100 μl of 0.004N HCl-isopropyl alcohol and then 10 μl of 0.01% sodium laurylsulfate aqueous solution was added to each well.” left out, “equation. […]” for “equation.”

[3] = system: endotoxin-shocked mice; conditions: mouse, in vivo; cited from earlier work
[4] = system: HIV-1; conditions: cited from earlier work
[5] = system: TNF; conditions: cited from earlier work
[6] = system: experimental allergic encephalomyelitis induced on an animal model; conditions: cited from earlier work
[7] = system: cancer patients; conditions: human, in vivo; cited from earlier work

Row | Molecule | inhibition at 30 µM [1] [%] | inhibition at 100 µM [2] [%] | Inhibition of TNF Production or Secretion [1] [%] | further results
1 | CCCCCC(=O)N1C2Cc3cc4c(cc3C1Cc1cc3c(cc12)OCO3)OCO4 [Example 19] | 16 | 51 |  | 
2 | CCCN1C2Cc3cc4c(cc3C1Cc1cc3c(cc12)OCO3)OCO4 [Example 29] | 31 | 81 |  | 
3 | CCCCN1C2Cc3cc4c(cc3C1Cc1cc3c(cc12)OCO3)OCO4 [Example 30] | -37 | 78 |  | inhibition at 50 µM [2]: 41%
4 | NCCCN1C2Cc3cc4c(cc3C1Cc1cc3c(cc12)OCO3)OCO4 [Example 49, 15-(3-aminopropyl)-5,6,12,13-tetrahydrocycloocta[1,2-f:5,6-f']bis[1,S]benzodioxol-5,12-imine] | -4 |  |  | inhibition at 50 µM [2]: 21%
5 | NCCCC(=O)N1C2Cc3cc4c(cc3C1Cc1cc3c(cc12)OCO3)OCO4 [Example 54, 15-(4-aminobutyryl)-5,6,12,13-tetrahydrocycloocta[1,2-f:5,6-f']bis[1,3]benzodioxol-5,12-imine] | 35 |  |  | 
6 | CC(=O)CCCCn1c(=O)c2c(ncn2C)n(C)c1=O [Pentoxifylline] |  |  |  | prevention of death in endotoxin-shocked mice [3]: activity of preventing death in endotoxin-shocked mice; prevention of HIV-1 replication [4]: activity of preventing HIV-1 replication; TNF inhibitory activity [5]: showing an activity of inhibiting TNF; prevention of experimental allergic encephalomyelitis [6]: activity of preventing experimental allergic encephalomyelitis induced on an animal model; sense of well-being / weight loss in cancer patients [7]: activity of improving the sense of well-being or preventing a weight loss in cancer patients
7 | isomeric mixture of 16-acetyl-2-aminomethyl-6,7,13,14-tetrahydro-[1,3]benzodioxolo[5,6-f]cycloocta[1,2-g]-1,4-benzodioxan-6,13-imine and 16-acetyl-3-aminomethyl-6,7,13,14-tetrahydro-[1,3]benzodioxolo[5,6-f]cycloocta[1,2-g]-1,4-benzodioxan-6,13-imine [Example 9] |  |  | 69 | 
8 | mixture of 16-acetyl-6,7,13,14-tetrahydro-2-hydroxymethyl[1,3]benzodioxolo[5,6-f]cycloocta[1,2-g]-1,4-benzodioxan-6,13-imine and 16-acetyl-6,7,13,14-tetrahydro-3-hydroxymethyl[1,3]benzodioxolo[5,6-f]cycloocta[1,2-g]-1,4-benzodioxan-6,13-imine [Example 8] |  |  | 86 | 
9 | mixture of 17-acetyl-2-ethoxycarbonyl-6,7,14,15-tetrahydrocycloocta-[1,2-g:5,6-g']bis[1,4]-benzodioxan-6,14-imine and 17-acetyl-3-ethoxycarbonyl-6,7,14,15-tetrahydrocycloocta[1,2-g:5,6-g']bis[1,4]benzodioxan-6,14-imine [Example 6] |  |  | 89 | 
10 | mixture of 17-acetyl-6,7,14,15-tetrahydro-2-hydroxymethylcycloocta[1,2-g:5,6-g']bis[1,4]benzodioxan-6,14-imine and 17-acetyl-6,7,14,15-tetrahydro-3-hydroxymethylcycloocta[1,2-g: 5,6-g']bis[1,4]benzodioxan-6,14-imine [Example 7] |  |  | 65 | 
